Source: US8980886B2, “Anthranilic acid derivatives” (Bayer Cropscience AG, priority 2010, dated 2015)
Read-outs that look alike come from different tables or passages of the source. One block for each compound: values may come before it.

Legend:
[1] = logP by HPLC on reversed-phase columns (C 18), EEC Directive 79/831 Annex V.A8; assay type: physicochemical; conditions: reversed-phase C 18, acidic range pH 2.7; for chromatographic logP: reversed-phase HPLC column (C 18), pH 2.7, HPLC
Method: The logP values reported in the table above and in the Preparation Examples were determined in accordance with EEC Directive 79/831 Annex V.A8 by HPLC (High Performance Liquid Chromatography) on reversed-phase columns (C 18), with the following methods: The LC-MS determination in the acidic range is carried out at pH 2.7 using the mobile phases 0.1% aqueous formic acid and acetonitrile (contains 0.1% formic acid), linear gradient from 10% acetonitrile to 95% acetonitrile Calibration was carried out using unbranched alkan-2-ones (having from 3 to 16 carbon atoms) with known logP values (the logP values were determined by the retention times using linear interpolation between two successive alkanones).

Phaedon cochleariae = assay: Phaedon test (PHAECO spray treatment); assay type: in vivo; conditions: 168 h, sprayed Chinese cabbage discs, after 7 days, read-out: activity in % (beetle larvae killed)
Method: (§1) Solvents: 78.0 parts by weight of acetone 1.5 parts by weight of dimethylformamide Emulsifier: 0.5 part by weight of alkylaryl polyglycol ether To produce a suitable preparation of active compound, 1 part by weight of active compound is mixed with the stated amount of solvents and emulsifier, and the concentrate is diluted with emulsifier-containing water to the desired concentration. Discs of Chinese cabbage (Brassica pekinensis) are sprayed with an active compound preparation of the desired concentration and, after drying, populated with larvae of the mustard beetle (Phaedon cochleariae). After 7 days, the activity in % is determined. 100% means that all beetle larvae have been killed; 0% means that none of the beetle larvae have been killed.

Spodoptera frugiperda = Spodoptera frugiperda test (SPODFR spray treatment); assay type: in vivo; conditions: foliar, 168 h, sprayed maize leaf discs, after 7 days, read-out: effect in % (caterpillars killed)
Method: as §1, with “maize leaves (Zea mays)” for “Chinese cabbage (Brassica pekinensis)”, “caterpillars” for “larvae”, “armyworm (Spodoptera frugiperda).” for “mustard beetle (Phaedon cochleariae).”, “effect” for “activity”, “determined” for “determined.”, “caterpillars” for “beetle larvae”

[2] = table of compounds, read-out: log P

SMILES: Cc1cc(Cl)cc2c(=O)oc(-c3cnc(Cn4nnc(C(F)(F)F)n4)nc3-c3ccccc3Cl)nc12 [6-chloro-2-[4-(2-chlorophenyl)-2-{[5-(trifluoromethyl)-2H-tetrazol-2-yl]methyl}pyrimidin-5-yl]-8-methyl-4H-3,1-benzoxazin-4-one]
- chromatographic logP ([1]; Preparation Examples): 5.16

SMILES: CNC(=O)c1cc(Br)cc(C)c1NC(=O)c1nc(Cn2nnc(C(F)(F)F)n2)sc1-c1ccccc1Cl [Compound 1]
- chromatographic logP [1, 2]: 3.98

SMILES: Cc1cc(Cl)cc(C(=O)NC(C)C)c1NC(=O)c1nc(Cn2nnc(C(F)(F)F)n2)sc1-c1ccccc1Cl [Compound 2]
- chromatographic logP [1, 2]: 4.34

SMILES: CNC(=O)c1cc(Cl)cc(C)c1NC(=O)c1cn(Cc2ccc(C(F)(F)F)nc2)nc1-c1ccccc1Cl [Compound 4]
- chromatographic logP [1, 2]: 3.12

SMILES: Cc1cc(Br)cc(C(=O)NC(C)C)c1NC(=O)c1nc(Cn2nnc(C(F)(F)F)n2)sc1-c1ccccc1Cl [Compound 5]
- chromatographic logP [1, 2]: 4.48

SMILES: CNC(=O)c1cc(C#N)cc(C)c1NC(=O)c1nc(Cn2nnc(C(F)(F)F)n2)oc1-c1ccccc1Cl [Compound 6]
- chromatographic logP [1, 2]: 3.25

SMILES: Cc1cc(C#N)cc(C(=O)NC(C)(C)C)c1NC(=O)c1nc(Cn2nnc(C(F)(F)F)n2)oc1-c1ccccc1Cl [Compound 7]
- chromatographic logP [1, 2]: 3.95

SMILES: CNC(=O)c1cc(Cl)cc(C)c1NC(=O)c1sc(Cn2nnc(C(F)(F)F)n2)nc1-c1ccccc1Cl [Compound 10]
- chromatographic logP [1, 2]: 3.63
- pest or weed control at 100 g/ha (Phaedon cochleariae): 100%

SMILES: Cc1cc(Br)cc(C(=O)NC(C)C)c1NC(=O)c1sc(Cn2nnc(C(F)(F)F)n2)nc1-c1ccccc1Cl [Compound 11]
- chromatographic logP [1, 2]: 4.28
- pest or weed control at 100 g/ha (Spodoptera frugiperda): 83%
- pest or weed control at 100 g/ha (Phaedon cochleariae): 83%

SMILES: CNC(=O)c1cc(Br)cc(C)c1NC(=O)c1sc(Cn2nnc(C(F)(F)F)n2)nc1-c1ccccc1Cl [Compound 12]
- chromatographic logP [1, 2]: 3.73
- pest or weed control at 100 g/ha (Phaedon cochleariae): 83%

SMILES: Cc1cc(Cl)cc(C(N)=O)c1NC(=O)c1sc(Cn2nnc(C(F)(F)F)n2)nc1-c1ccccc1Cl [Compound 13]
- chromatographic logP [1, 2]: 3.34
- pest or weed control at 100 g/ha (Spodoptera frugiperda): 100%
- pest or weed control at 100 g/ha (Phaedon cochleariae): 100%

SMILES: CNC(=O)c1cc(C#N)cc(C)c1NC(=O)c1sc(Cn2nnc(C(F)(F)F)n2)nc1-c1ccccc1Cl [Compound 14]
- chromatographic logP [1, 2]: 3.19
- pest or weed control at 100 g/ha (Spodoptera frugiperda): 100%

SMILES: Cc1cc(C#N)cc(C(=O)NC(C)C)c1NC(=O)c1nc(Cn2nnc(C(F)(F)F)n2)oc1-c1ccccc1Cl [Compound 15]
- chromatographic logP [1, 2]: 3.69

SMILES: CNC(=O)c1cc(Cl)cc(C)c1NC(=O)c1nc(Cn2nnc(C(F)(F)F)n2)oc1-c1ccccc1Cl [Compound 16]
- chromatographic logP [1, 2]: 3.65

SMILES: Cc1cc(Cl)cc(C(=O)NC(C)(C)C)c1NC(=O)c1nc(Cn2nnc(C(F)(F)F)n2)oc1-c1ccccc1Cl [Compound 18]
- chromatographic logP [1, 2]: 4.46

SMILES: Cc1cc(Cl)cc(C(=O)NC(C)C)c1NC(=O)c1nc(Cn2nnc(C(F)(F)F)n2)oc1-c1ccccc1Cl [Compound 19]
- chromatographic logP [1, 2]: 4.11

SMILES: Cc1cc(Cl)cc(C(N)=O)c1NC(=O)c1nc(Cn2nnc(C(F)(F)F)n2)oc1-c1ccccc1Cl [Compound 20]
- chromatographic logP [1, 2]: 3.45

SMILES: CNC(=O)c1cc(Br)cc(C)c1NC(=O)c1nc(Cn2nnc(C(F)(F)F)n2)oc1-c1ccccc1Cl [Compound 21]
- chromatographic logP [1, 2]: 3.72

SMILES: Cc1cc(Br)cc(C(=O)NC(C)(C)C)c1NC(=O)c1nc(Cn2nnc(C(F)(F)F)n2)oc1-c1ccccc1Cl [Compound 22]
- chromatographic logP [1, 2]: 4.52

SMILES: Cc1cc(Br)cc(C(=O)NC(C)C)c1NC(=O)c1nc(Cn2nnc(C(F)(F)F)n2)oc1-c1ccccc1Cl [Compound 23]
- chromatographic logP [1, 2]: 4.21

SMILES: CNC(=O)c1cc(C#N)cc(C)c1NC(=O)c1nc(Cn2nnc(C(F)(F)F)n2)sc1-c1ccccc1Cl [Compound 24]
- chromatographic logP [1, 2]: 3.46

SMILES: Cc1cc(C#N)cc(C(=O)NC(C)C)c1NC(=O)c1sc(Cn2nnc(C(F)(F)F)n2)nc1-c1ccccc1Cl [Compound 25]
- chromatographic logP [1, 2]: 3.7
- pest or weed control at 100 g/ha (Spodoptera frugiperda): 100%
- pest or weed control at 100 g/ha (Phaedon cochleariae): 100%

SMILES: Cc1cc(Br)cc(C(=O)NC(C)(C)C)c1NC(=O)c1sc(Cn2nnc(C(F)(F)F)n2)nc1-c1ccccc1Cl [Compound 26]
- chromatographic logP [1, 2]: 4.69
- pest or weed control at 100 g/ha (Spodoptera frugiperda): 100%
- pest or weed control at 100 g/ha (Phaedon cochleariae): 100%

The next lines start with results.

- chromatographic logP [1, 2]: 4.59
SMILES: Cc1cc(Cl)cc(C(=O)NC(C)(C)C)c1NC(=O)c1sc(Cn2nnc(C(F)(F)F)n2)nc1-c1ccccc1Cl [Compound 27]
- pest or weed control at 100 g/ha (Spodoptera frugiperda): 100%
- pest or weed control at 100 g/ha (Phaedon cochleariae): 100%

- chromatographic logP [1, 2]: 4.29
SMILES: Cc1cc(C#N)cc(C(=O)NC(C)(C)C)c1NC(=O)c1nc(Cn2nnc(C(F)(F)F)n2)sc1-c1ccccc1Cl [Compound 28]

- chromatographic logP [1, 2]: 4.83
SMILES: Cc1cc(Br)cc(C(=O)NC(C)(C)C)c1NC(=O)c1nc(Cn2nnc(C(F)(F)F)n2)sc1-c1ccccc1Cl [Compound 29]

- chromatographic logP [1, 2]: 4.07
SMILES: Cc1cc(C#N)cc(C(=O)NC(C)(C)C)c1NC(=O)c1sc(Cn2nnc(C(F)(F)F)n2)nc1-c1ccccc1Cl [Compound 30]
- pest or weed control at 100 g/ha (Spodoptera frugiperda): 100%
- pest or weed control at 100 g/ha (Phaedon cochleariae): 100%

- log P ([1]; HPLC, table of compounds): 2.83
- chromatographic logP [1, 2]: 2.78
SMILES: CNC(=O)c1cc(C#N)cc(C)c1NC(=O)c1cn(Cc2ccc(C(F)(F)F)nc2)nc1-c1ccccc1Cl [Compound 31]
- pest or weed control at 100 g/ha (Spodoptera frugiperda): 100%

- chromatographic logP [1, 2]: 4.15
SMILES: Cc1cc(Cl)cc(C(=O)NC(C)C)c1NC(=O)c1sc(Cn2nnc(C(F)(F)F)n2)nc1-c1ccccc1Cl [Compound 32]
- pest or weed control at 100 g/ha (Spodoptera frugiperda): 100%
- pest or weed control at 100 g/ha (Phaedon cochleariae): 100%

- chromatographic logP [1, 2]: 2.75
SMILES: CNC(=O)c1cc(C#N)cc(C)c1NC(=O)c1cc(C(=O)Cn2nnc(C(F)(F)F)n2)cn1-c1ncccc1Cl [Compound 33]

- chromatographic logP ([1]; Preparation Examples): 2.5
SMILES: O=C(O)c1cnc(Cn2nnc(C(F)(F)F)n2)nc1-c1ccccc1Cl [Example No. (IV-1), 4-(2-chlorophenyl)-2-[5-(trifluoromethyl)-2H-tetrazol-2-yl]methylpyrimidine-5-carboxylic acid]

- chromatographic logP ([1]; Preparation Examples): 3.32
SMILES: CCOC(=O)c1cnc(CBr)nc1-c1ccccc1Cl [Example No. (IX), ethyl 2-(bromomethyl)-4-(2-chlorophenyl)pyrimidine-5-carboxylate]

- chromatographic logP ([1]; Preparation Examples): 3.56
SMILES: CCOC(=O)c1cnc(Cn2nnc(C(F)(F)F)n2)nc1-c1ccccc1Cl [Example No. (X), ethyl 4-(2-chlorophenyl)-2-[5-(trifluoromethyl)-2H-tetrazol-2-yl]methylpyrimidine-5-carboxylate]

- chromatographic logP ([1]; Preparation Examples): 2.24
SMILES: O=C(Cn1nnc(C(F)(F)F)n1)c1cc(C(=O)O)n(-c2ncccc2Cl)c1 [Example No. IV-3, 1-(3-chloropyridin-2-yl)-4-{[5-(trifluoromethyl)-2H-tetrazol-2-yl]acetyl}-1H-pyrrole-2-carboxylic acid]

- chromatographic logP ([1]; Preparation Examples): 2.63
SMILES: O=C(O)c1sc(Cn2nnc(C(F)(F)F)n2)nc1-c1ccccc1Cl [Example No. X (IV-2), 4-(2-chlorophenyl)-2-{[5-(trifluoromethyl)-2H-tetrazol-2-yl]methyl}-1,3-thiazole-5-carboxylic acid]

- chromatographic logP ([1]; Preparation Examples): 4.12
SMILES: COC(=O)c1sc(CBr)nc1-c1ccccc1Cl [Example No. XII, methyl 2-(bromomethyl)-4-(2-chlorophenyl)-1,3-thiazole-5-carboxylate]

- chromatographic logP ([1]; Preparation Examples): 3.6
SMILES: COC(=O)c1sc(Cn2nnc(C(F)(F)F)n2)nc1-c1ccccc1Cl [Example No. XIII, methyl 4-(2-chlorophenyl)-2-{[5-(trifluoromethyl)-2H-tetrazol-2-yl]methyl}-1,3-thiazole-5-carboxylate]

- chromatographic logP ([1]; Preparation Examples): 1.74
SMILES: COC(=O)c1cc(C(C)=O)cn1-c1ncccc1Cl [Example No. XV, methyl 4-acetyl-1-(3-chloropyridin-2-yl)-1H-pyrrole-2-carboxylate]

- chromatographic logP ([1]; Preparation Examples): 2.28
SMILES: COC(=O)c1cc(C(=O)CBr)cn1-c1ncccc1Cl [Example No. XVI, methyl 4-(bromoacetyl)-1-(3-chloropyridin-2-yl)-1H-pyrrole-2-carboxylate]

- chromatographic logP ([1]; Preparation Examples): 2.97
SMILES: COC(=O)c1cc(C(=O)Cn2nnc(C(F)(F)F)n2)cn1-c1ncccc1Cl [Example No. XVII, methyl 1-(3-chloropyridin-2-yl)-4-{[5-(trifluoromethyl)-2H-tetrazol-2-yl]acetyl}-1H-pyrrole-2-carboxylate]

- chromatographic logP ([1]; Preparation Examples): 3.13
SMILES: CNC(=O)c1cc(Cl)cc(C)c1NC(=O)c1cnc(Cn2nnc(C(F)(F)F)n2)nc1-c1ccccc1Cl [N-[4-chloro-2-methyl-6-(methylcarbamoyl)phenyl]-4-(2-chlorophenyl)-2-{[5-(trifluoromethyl)-2H-tetrazol-2-yl]methyl}pyrimidine-5-carboxamide]
